Laboratory results published in US7977346B2, “Spiro compounds and methods of use” (priority 2006, dated 2011).

How the values were obtained:
colon LOVO cell line = assay: MTT assay against colon LOVO cell line; assay type: cell-based, human
Source text: (§1) The following in vitro results are activities of some compounds in present invention against human tumor NSCLC A549 cell line and colon LOVO cell line in MTT assay.

[1] = tested on: human tumor NSCLC A549 cell line; assay: MTT assay against human tumor NSCLC A549 cell line; assay type: cell-based
Source text: as §1

Row | Compound | IC50 (colon LOVO cell line) | IC50 [1]
1 | COc1cc2ncnc(Nc3ccc(F)c(Cl)c3)c2cc1OCCCN1CC(=O)C2(CC2)C1 [Example 22, N-(3-chloro-4-fluorophenyl)-7-methoxy-6-[3-(5-azaspiro[2.4]heptan-7-one)propoxy]quinazolin-4-amine] | 0.0329 nM | 0.0359 nM
2 | C#Cc1cccc(Nc2ncnc3cc(OC)c(OCCN4CC(=O)C5(CC5)C4)cc23)c1 [Example 29, N-(3-ethynylphenyl)-7-methoxy-6-[2-(5-azaspiro[2.4]heptan-7-one)ethoxy]quinazolin-4-amine] | 0.0934 nM | 0.104 nM
3 | COc1cc2ncnc(Nc3ccc(F)c(Cl)c3)c2cc1OCCCN1CC(O)C2(CC2)C1 (centres unmarked) [Example 24, N-(3-chloro-4-fluorophenyl)-7-methoxy-6-[3-(5-azaspiro[2.4]heptan-7-ol)propoxy]quinazolin-4-amine] | 0.165 nM | 0.0375 nM
4 | COc1cc2ncnc(Nc3ccc(Cl)c(Cl)c3)c2cc1OCCN1CC2(CC2)C2(C1)OCCO2 [Example 33, N-(3,4-dichlorophenyl)-7-methoxy-6-[2-(5,8-Dioxa-10-azadispiro[2.0.4.3]undecane)ethoxy]quinazolin-4-amine] | 0.118 nM | 0.0519 nM
5 | COc1cc2c(Nc3ccc(Br)cc3F)ncnc2cc1OCCCN1CC2(CC2)C2(C1)OCCO2 [Example 35, N-(2-fluoro-4-bromophenyl)-6-methoxy-7-[3-(5,8-Dioxa-10-azadispiro[2.0.4.3]undecane)propoxy]quinazolin-4-amine] | 0.0318 nM | 0.0402 nM
6 | COc1cc2ncnc(Nc3ccc(F)c(Cl)c3)c2cc1OCCN1CC(=O)C2(CC2)C1 [Example 23, N-(3-chloro-4-fluorophenyl)-7-methoxy-6-[2-(5-azaspiro[2.4]heptan-7-one)ethoxy]quinazolin-4-amine] | 0.219 nM | 0.0893 nM
7 | COc1cc2ncnc(Nc3ccc(F)c(Cl)c3)c2cc1OCCCN1CC2(CC2)C2(C1)OCC(C)(C)CO2 [Example 41, N-(3-chloro-4-fluorophenyl)-7-methoxy-6-[3-(5,9-Dioxa-7,7-dimethyl-11-azadispiro[2.0.4.3]dodecane)propoxy]quinazolin-4-amine] | 0.129 nM | 0.075 nM
8 | COc1cc2ncnc(Nc3cccc(C(F)(F)F)c3)c2cc1OCCN1CC2(CC2)C2(C1)OCCO2 [Example 31, N-(3-trifluoromethylphenyl)-7-methoxy-6-[2-(5,8-Dioxa-10-azadispiro[2.0.4.3]undecane)ethoxy]quinazolin-4-amine] | 0.098 nM | 0.0546 nM
9 | COc1cc2ncnc(Nc3ccc(F)c(Cl)c3)c2cc1OCCN1CC(OC)C2(CC2)C1 (centres unmarked) [Example 27, N-(3-chloro-4-fluorophenyl)-7-methoxy-6-[2-(7-methoxy-5-azaspiro[2.4]heptane)ethoxy]quinazolin-4-amine] | 0.0978 nM | 0.212 nM
10 | COc1cc2ncnc(Nc3ccc(F)c(Cl)c3)c2cc1OCCN1CC2(CC2)C2(C1)OCCCO2 [Example 38, N-(3-chloro-4-fluorophenyl)-7-methoxy-6-[2-(5,9-Dioxa-11-azadispiro[2.0.4.3]dodecane)ethoxy]quinazolin-4-amine] | 0.143 nM | 0.073 nM
11 | C#Cc1cccc(Nc2ncnc3cc(OC)c(OCCN4CC(O)C5(CC5)C4)cc23)c1 (centres unmarked) [Example 30, N-(3-ethynylphenyl)-7-methoxy-6-[2-(5-azaspiro[2.4]heptan-7-ol)ethoxy]quinazolin-4-amine] | 0.0272 nM | 0.0749 nM
12 | COc1cc2ncnc(Nc3ccc(F)c(Cl)c3)c2cc1OCCN1CC2(CC2)C2(C1)OCC(C)(C)CO2 [Example 39, N-(3-chloro-4-fluorophenyl)-7-methoxy-6-[2-(5,9-Dioxa-7,7-dimethyl-11-azadispiro[2.0.4.3]dodecane)ethoxy]quinazolin-4-amine] | 0.03 nM | 0.023 nM
13 | COc1cc2ncnc(Nc3cccc(Br)c3)c2cc1OCCN1CC2(CC2)C2(C1)OCCO2 [Example 32, N-(3-bromophenyl)-7-methoxy-6-[2-(5,8-Dioxa-10-azadispiro[2.0.4.3]undecane)ethoxy]quinazolin-4-amine] | 0.032 nM | 0.028 nM
14 | COc1cc2ncnc(Nc3ccc(F)c(Cl)c3)c2cc1OCCN1CC(O)C2(CC2)C1 (centres unmarked) [Example 25, N-(3-chloro-4-fluorophenyl)-7-methoxy-6-[2-(5-azaspiro[2.4]heptan-7-ol)ethoxy]quinazolin-4-amine] | 0.0954 nM | 0.0573 nM
15 | COc1cc2ncnc(Nc3ccc(F)c(Cl)c3)c2cc1OCCCN1CC2(CC2)C2(C1)OCCO2 [Example 20, N-(3-chloro-4-fluorophenyl)-7-methoxy-6-[3-(5,8-Dioxa-10-azadispiro[2.0.4.3]undecane)propoxy]quinazolin-4-amine] | 0.0375 nM | 0.0619 nM
16 | COc1cc2ncnc(Nc3ccc(F)c(Cl)c3)c2cc1OCCN1CC2(CC2)C2(C1)OCCO2 [Example 21, N-(3-chloro-4-fluorophenyl)-7-methoxy-6-[2-(5,8-Dioxa-10-azadispiro[2.0.4.3]undecane)ethoxy]quinazolin-4-amine] | 0.139 nM | 0.0421 nM
17 | N-(3-chloro-4-fluorophenyl)-7-methoxy-6-[3-(5,9-Dioxa-11-azadispiro[2.0.4.3]dodecane)propoxy]quinazolin-4-amine [Example 40] | 0.029 nM | 0.042 nM
18 | C#Cc1cccc(Nc2ncnc3cc(OC)c(OCCN4CC5(CC5)C5(C4)OCCO5)cc23)c1 [Example 28, N-(3-ethynylphenyl)-7-methoxy-6-[2-(5,8-Dioxa-10-azadispiro[2.0.4.3]undecane)ethoxy]quinazolin-4-amine] | 0.0376 nM | 0.096 nM
19 | COc1cc2ncnc(Nc3ccc(F)c(Cl)c3)c2cc1OCCN1CC2(CC2)C2(C1)OCCS2 (centres unmarked) [Example 37, N-(3-chloro-4-fluorophenyl)-7-methoxy-6-[2-(5,8-Oxathiolane-10-azadispiro[2.0.4.3]undecane)ethoxy]quinazolin-4-amine] | 0.0553 nM | 0.132 nM
20 | COc1cc2ncnc(Nc3ccc(F)c(Cl)c3)c2cc1OCCCN1CC2(CC2)C2(C1)OCCS2 (centres unmarked) [Example 34, N-(3-chloro-4-fluorophenyl)-7-methoxy-6-[3-(5,8-Oxathiolane-10-azadispiro[2.0.4.3]undecane)propoxy]quinazolin-4-amine] | 0.171 nM | 0.034 nM
21 | COc1cc2c(Nc3ccc(Br)cc3F)ncnc2cc1OCCN1CC2(CC2)C2(C1)OCCO2 [Example 36, N-(2-fluoro-4-bromophenyl)-6-methoxy-7-[2-(5,8-Dioxa-10-azadispiro[2.0.4.3]undecane)ethoxy]quinazolin-4-amine] | 0.057 nM | 0.022 nM
22 | COc1cc2ncnc(Nc3ccc(F)c(Cl)c3)c2cc1OCCCN1CC(OC)C2(CC2)C1 (centres unmarked) [Example 26, N-(3-chloro-4-fluorophenyl)-7-methoxy-6-[3-(7-methoxy-5-azaspiro[2.4]heptane)propoxy]quinazolin-4-amine] | 0.0376 nM | 0.091 nM
